Source: patent US12279855B2, “Highly-timed resolved myocardial blood-oxygen-level-dependent magnetic resonance imaging” (Cedars-Sinai Medical Center, priority 2018, dated 2025)
Entries after “also recorded” stand apart in the source; their conditions may differ. Read-outs that look alike come from different tables or passages of the source.

Tests used:
[1] = extended vasodilatory state, cited from earlier work
[2] = tested on: Anesthetized dogs (intact; with chronic myocardial infarction), myocardium; assay: Beat-to-beat cardiac BOLD MRI at 3T before and after regadenoson injection; assay type: in vivo, dog
Description: FIG. 2A-FIG. 2F depicts in accordance with various embodiments of the invention, dynamics of BOLD response at rest and under the influence of regadenoson. BOLD response was relatively flat (fluctuated within +/−5%) throughout the measurement at rest (FIG. 2A), but peaks at 2-3 minutes after regadenoson injection to 10-15% and then plateaus after 4 minutes of injection (FIG. 2B). […] BOLD response was relatively flat in Remote and Affected territories at rest (FIG. 2D). However, under the influence of regadenoson (FIG. 2E), the BOLD response remained flat in Affected myocardium, while there was a delayed but rising BOLD response in Remote myocardium peaking at approximately 5 minutes was observed (FIG. 2E). The corresponding LGE image (with evidence of infarction) of the slice and where BOLD responses were measured are shown in FIG. 2F.
Methods. The proposed cardiac BOLD MRI approach was developed based on a LRT formalism (acquisition and reconstruction) that was previously used for ungated cardiac T1 mapping. It is composed of 3 parts: (i) adiabatic T2 preparation that is repeated at a fixed interval to ensure consistent T2 weighting; (ii) repeat acquisition of a set of central k-space lines with GRE readout every other TR to serve as respiratory and cardiac navigators for reconstruction; and (iii) interleaving of a set of golden-ratio radial GRE readout lines with the navigator lines serving as LRT training data. In brief, we modeled a high-dimensional cardiac image space (cardiac motion (Uc), respiratory motion (Ur), T1 recovery time (Ut), and time after excitation (Ut)) as a low-rank tensor that is partially separable. The complete tensors of all subspaces were recovered from the frequently sampled navigator signal using LRT completion. Subsequently cardiac and respiratory phased-resolved, beat-to-beat cardiac BOLD images were reconstructed. Anesthetized dogs (intact, n=2; and with chronic myocardial infarction, n=2) underwent continuous acquisition in a 3T MRI system (Siemens, Verio) that began 1-minute prior to regadenoson injection ([…]; duration of injection=30 sec) and ended 6 minutes after regadenoson injection. The data acquisition and reconstruction schemes are illustrated in FIG. 1. Sequence parameters were: scan time: 6 mins, delay between T2prep=800 ms; TE (T2prep time)=60 ms; GRE readout (TE/TR=1.4/3.3 ms, flip angle=12°, FOV=270×270 mm2, in-plane resolution: 1.7×1.7 mm2, 1 slice of thickness: 6 mm).
Results. […] LGE images show the region where the BOLD responses were measured. […] In animals with chronic MI (FIG. 2D, FIG. 2E and FIG. 2F), rest BOLD Response was also relatively stable in the infarcted and remote myocardium. However, following regadenoson injection, there was no response in the affected (infarcted) myocardium; but in the remote myocardium, a noticeably delayed hyperemic BOLD Response was observed (compared to intact animals), which peaked ˜5 minutes after regadenoson injection and plateaued to above 25%.

[3] = intact animal, healthy myocardium, regadenoson 2.5 mg/kg over 30 sec

In the case of `Nc1nc(N/N=C/C2CCCCC2)nc2c1ncn2[C@@H]1O[C@H](CO)[C@@H](O)[C@H]1O` [binodenoson], the terminal half-life ([1]; literature references) is listed as 10 to 120 min.
For `OCCN(CCO)c1nc(N2CCCCC2)c2nc(N(CCO)CCO)nc(N3CCCCC3)c2n1` [dipyridamole], the terminal half-life ([1]; range printed in mixed units (min to hours), literature reference) is given as 40 to 600 min.
In the case of `CNC(=O)c1cnn(-c2nc(N)c3ncn([C@@H]4O[C@H](CO)[C@@H](O)[C@H]4O)c3n2)c1` [regadenoson], the terminal half-life ([1]; literature references) is given as 33 to 108 min, the “BOLD response in Affected (infarcted) myocardium” value ([2]; animal with chronic MI, affected territory, regadenoson 2.5 mg/kg over 30 sec) is given as “remained flat; also recorded: no response” and the “plateau of BOLD Response in Remote myocardium” value ([2]; animal with chronic MI, remote territory, regadenoson 2.5 mg/kg over 30 sec) is given as “above 25%”. The “plateau of normalized BOLD Response” value [2, 3] was “more than 10%”, the “time after injection at which BOLD response plateaus” value [2, 3] was 4 min and the “time over which BOLD response rises / peaks after regadenoson injection” value [2, 3] was 2 to 3 min. The “BOLD response at peak after regadenoson injection” value ([2]; intact animal, healthy myocardium, regadenoson injection 2.5 mg/kg over 30 sec, normalized BOLD response) was 10-15%.
